The numbers were not newly measured in patent US20040077556A1, “Compositions and methods for promoting weight loss, thermogenesis, appetite suppression, lean muscle mass, increasing metabolism and boosting energy levels, and use as a dietary supplement in mammals” (priority 2002, published 2004), which cites them from elsewhere.

Structures are written as SMILES. Read-outs that look alike come from different tables or passages of the source.

The subject of data set [1] is brown adipose tissue thermogenesis.
The conditions of data set [2]: cold-exposed rats.

`O=c1c(O)c(-c2ccc(O)c(O)c2)oc2cc(O)cc(O)c12` [quercetin, 3,3′,4′,5-7-pentahydroxyflavone]: in the data set with cAMP, the “increase in cAMP” value is “dose-dependent increase”.
For `O=C(O[C@@H]1Cc2c(O)cc(O)cc2O[C@@H]1c1cc(O)c(O)c(O)c1)c1cc(O)c(O)c(O)c1` [EGCG, (2R,3R)-2-(3,4,5-Trihydroxyphenyl)-3,4-dihydro-1[2H]-benzopyran-3,5,7-triol 3-(3,4,5-trihydroxybenzoate)], in data set [1] (EGCG alone, 200 μM), the increase in thermogenesis is on record as 40%. Also, the effect on thermogenesis entry in data set [1] (EGCG alone, 50 and 100 μM) is reported as “no effect”.
Regarding `Cn1c(=O)c2[nH]cnc2n(C)c1=O.NCCN` [aminophylline, theophylline ethylenediamine], the figures for the “increase of maximum thermogenesis” value in data set [2] (fed) and in data set [2] (unfed) were 14.4% and 19.4%, respectively. Besides, the “noradrenaline-stimulated thermogenesis after pretreatment” value in data set [2] (unfed, to levels seen in fed rats, dropped 18.2 percent without pretreatment) is listed as “restored”.
For the compound `NCCc1ccccc1` [PEA, phenylethylamine], under “15 mg per kg of bodyweight per day”, the “decrease of food intake” value was “roughly one-third”. For the same compound, for the setting “50 mg per kg of bodyweight”, the “maximum reduction of food intake” value is “roughly twenty”. Also, the “reduction of food intake” value (15-50 mg per kg of bodyweight) is reported as 20-30%. For the same compound, under “after four weeks”, the “tolerance to appetite-reducing effect” value is reported as “no tolerance”.
Take `O=c1c(O)c(-c2ccc(O)c(O)c2)oc2cc(O)ccc12` [Fisetin, 3,3′,4′,7-tetrahydroxyflavone]: in the data set on cAMP, the “increase in cAMP” value is recorded as “dose-dependent increase”.
With `Cn1c(=O)c2c(ncn2C)n(C)c1=O` [caffeine], the effect on thermogenesis result in data set [1] (caffeine alone) is “little or no effect”.
